Assay [1] deals with CDK8 (TCF/LEF luciferase reporter in HCT116 cells). Kind of assay: Cell based TCF/LEF reporter assay (HCT116+TCF/LEF luciferase). As to conditions: Homo sapiens, HCT-116, 24 h. An excerpt: Determine Inhibitor Activity Against CDK8 in Cell Based TCF/LEF Reporter Assay
The colorectal carcinoma cell line HCT116 was stably transduced with lentivirus encoding the TCF/LEF promoter upstream of a luciferase reporter gene (Qiagen) and single cell clones expressing this construct (referred to as HCT116+TCF/LEF) were isolated. HCT116 express endogenous mutant β-catenin^3, resulting in up-regulation of transcription through the TCF/LEF promoter. Expression of the TCF/LEF reporter construct in HCT116 results in constitutive expression of luciferase. Treatment of the cells with inhibitors of components of the β-catenin signaling pathway (such as CDK8) results in decreased expression of luciferase. The assay is performed as follows. The HCT116+TCF/LEF cell line is seeded in a 96 well plate in 50 μL of culture media at 1×10^4 cells/well and incubated at 37° C. overnight. Serial dilutions of compounds (in total volume of 50 μL culture media) are added to the cells and incubated at 37° C. for 24 hours. 4 wells of DMSO treated cells serve as high controls and cells treated with 10 uM of the reference compound CCT251545 (a known CDK8 inhibitor)^4 serve as low controls. The viability of the cells is assayed by the addition of […] reagent (Promega) followed by 30 minute incubation at 37° C. and quantification of the fluorescent signal (Ex400/Em505). The luciferase expression is then assayed by the addition of 25 μL ONE-Glo reagent (Promega) followed by 10 minute incubation at room temperature and quantification of the luminescence signal. The luminescence signal is normalized to the fluorescence signal to correct for any loss in cell viability over the 24 hour compound incubation period. The percentage inhibition at individual concentrations relative to high and low controls is calculated. The data are analyzed by using nonlinear regression to generate IC50 values.
(In general: A reporter such as luciferase makes a cellular process visible.)

The test system of assay [2] is CDK8 (phosphorylation of STAT1 at serine 727 in A549 cells). Kind of assay: Cell based Phospho-STAT1 assay (IFNγ-stimulated A549 cells, AlphaLISA). The note with it: Homo sapiens, A549, A549 cells, phospho-STAT1 after IFNγ stimulation. The procedure, abridged: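 A549 cells given serial compound dilutions for 1 h at 37 °C, then stimulated with IFNγ at 10 ng/mL final for 30 min. Lysate STAT1 Ser727 phosphorylation measured by AlphaLISA; % inhibition vs stimulated/unstimulated DMSO controls, IC50 by nonlinear regression.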
(In general: Alpha assays give light when donor and acceptor beads are brought close together.)

As a reminder, the IC50 is the concentration that inhibits the measured activity by half. As for `CC(C)(O)C#Cc1cccn2ncc(-c3cnn(-c4cncc(C5CC5)c4)c3)c12` [Compound P-0289, 4-(3-(1-(5-cyclopropylpyridin-3-yl)-1H-pyrazol-4-yl)pyrazolo[1,5-a]pyridin-4-yl)-2-methylbut-3-yn-2-ol], the 50% inhibitory concentration (IC50) in assay [1] and in assay [2] was 1000 to 10000 nM each time.
Consider `N#CC1CCN(c2cccn3ncc(-c4ccc(S(=O)(=O)N5CCCCC5)cc4)c23)CC1` [Compound P-0256, 1-(3-(4-(piperidin-1-ylsulfonyl)phenyl)pyrazolo[1,5-a]pyridin-4-yl)piperidine-4-carbonitrile], for which the IC50 in assay [1] lay in the range of 1000 to 10000 nM.
On to `Cn1cc(-c2ccc(-c3cnn4cccc(C#CC(C)(C)C#N)c34)cc2)cn1` [Compound P-0273, 2,2-dimethyl-4-(3-(4-(1-methyl-1H-pyrazol-4-yl)phenyl)pyrazolo[1,5-a]pyridin-4-yl)but-3-ynenitrile], for which the IC50 in assay [1] and in assay [2] was 0.1 to 100 nM throughout.
As to `Cc1nn(C)cc1-c1ccc(-c2cnn3cccc(C#CC(C)(C)O)c23)cc1` [Compound P-0311, 4-(3-(4-(1,3-dimethyl-1H-pyrazol-4-yl)phenyl)pyrazolo[1,5-a]pyridin-4-yl)-2-methylbut-3-yn-2-ol], the IC50 was in the range of 100 to 1000 nM in assay [1] and 0.1 to 100 nM in assay [2].
In the case of `N#CC1CCC(c2cccn3ncc(-c4ccc(OCCCN5CCCCC5)cc4)c23)CC1` (stereo not shown) [Compound P-0142, 4-(3-(4-(3-(piperidin-1-yl)propoxy)phenyl)pyrazolo[1,5-a]pyridin-4-yl)cyclohexane-1-carbonitrile], the IC50 in assay [1] and in assay [2] was 0.1 to 100 nM each time.
Take `N#CC1CC=C(c2c(-c3ccc4c(c3)OCC(=O)N4)cnc3[nH]ccc23)CC1` (stereo not shown) [Compound P-0205, 4-(5-(3-oxo-3,4-dihydro-2H-benzo[b][1,4]oxazin-7-yl)-1H-pyrrolo[2,3-b]pyridin-4-yl)cyclohex-3-ene-1-carbonitrile]: the IC50 in assay [1] fell in the range of 0.1 to 100 nM; in assay [2], 100 to 1000 nM.
With `Cn1ncc2cc(-c3cnn4cccc(C5CCC(C#N)CC5)c34)ccc21` (stereo not shown) [Compound P-0337, 4-(3-(1-methyl-1H-indazol-5-yl)pyrazolo[1,5-a]pyridin-4-yl)cyclohexane-1-carbonitrile], the IC50 in assay [1] and in assay [2] was 0.1 to 100 nM each time.
Take `Cn1cc(-c2ccc(-c3cnn4cccc(N5CCC6(CCNC6=O)CC5)c34)cc2)cn1` [Compound P-0170, 8-(3-(4-(1-methyl-1H-pyrazol-4-yl)phenyl)pyrazolo[1,5-a]pyridin-4-yl)-2,8-diazaspiro[4.5]decan-1-one]: the IC50 in assay [1] and in assay [2] was 0.1 to 100 nM in each case.
As for `N#CCn1cc(-c2ccc(-c3cnn4ccnc(C5CCC(C#N)CC5)c34)cc2)cn1` (stereo not shown) [Compound P-0014, (1s,4s)-4-(3-(4-(1-(cyanomethyl)-1H-pyrazol-4-yl)phenyl)pyrazolo[1,5-a]pyrazin-4-yl)cyclohexane-1-carbonitrile], the IC50 in assay [1] and in assay [2] was 0.1 to 100 nM each time.
With `N#CC1CC=C(c2nccn3ncc(-c4ccc(OCC(O)CN5CCOCC5)cc4)c23)CC1` (stereo not shown) [Compound P-0078, 4-(3-(4-(2-hydroxy-3-morpholinopropoxy)phenyl)pyrazolo[1,5-a]pyrazin-4-yl)cyclohex-3-ene-1-carbonitrile], the IC50 in assay [1] and in assay [2] was 0.1 to 100 nM in each case.
Consider `CC(C)(O)Cn1cc(-c2ccc(-c3cnc4[nH]cc(Cl)c4c3N3CCC(C#N)CC3)cc2)cn1` [Compound P-0204, 1-(3-chloro-5-(4-(1-(2-hydroxy-2-methylpropyl)-1H-pyrazol-4-yl)phenyl)-1H-pyrrolo[2,3-b]pyridin-4-yl)piperidine-4-carbonitrile], for which the IC50 in assay [1] and in assay [2] was 0.1 to 100 nM each time.
Turning to `CC(C)(O)Cn1cc(-c2ccc(-c3cnc4[nH]ccc4c3C3=CCC(C#N)CC3)cc2F)cn1` (stereo not shown) [Compound P-0132, 4-(5-(3-fluoro-4-(1-(2-hydroxy-2-methylpropyl)-1H-pyrazol-4-yl)phenyl)-1H-pyrrolo[2,3-b]pyridin-4-yl)cyclohex-3-ene-1-carbonitrile], the IC50 in assay [1] and in assay [2] was 0.1 to 100 nM in each case.
Turning to `CCCS(=O)(=O)Nc1ccc2cc(-c3cnn4ccnc(C5CCC(C#N)CC5)c34)ccc2c1` (stereo not shown) [Compound P-0061, N-(6-(4-((1s,4s)-4-cyanocyclohexyl)pyrazolo[1,5-a]pyrazin-3-yl)naphthalen-2-yl)propane-1-sulfonamide], the IC50 in assay [1] and in assay [2] was 0.1 to 100 nM each time.
With `Cc1cc(-c2ccc(-c3cnc4[nH]ccc4c3N3CCC(C#N)CC3)cc2)n[nH]1` [Compound P-0175, 1-(5-(4-(5-methyl-1H-pyrazol-3-yl)phenyl)-1H-pyrrolo[2,3-b]pyridin-4-yl)piperidine-4-carbonitrile], the IC50 in assay [1] was 0.1 to 100 nM.
On the same count and under the same terms, in the case of `O=C(O)C1CC=C(c2cccn3ncc(-c4ccc(-n5ccnn5)cc4)c23)CC1` (stereo not shown) [Compound P-0212, 4-(3-(4-(1H-1,2,3-triazol-1-yl)phenyl)pyrazolo[1,5-a]pyridin-4-yl)cyclohex-3-ene-1-carboxylic acid] it was 100 to 1000 nM; in that of `N#CC1CC=C(c2nccn3ncc(-c4ccc(OCC(F)(F)F)c(F)c4)c23)CC1` (stereo not shown) [Compound P-0037, 4-(3-(3-fluoro-4-(2,2,2-trifluoro-ethoxy)phenyl)pyrazolo[1,5-a]pyrazin-4-yl)cyclohex-3-ene-1-carbonitrile], 100 to 1000 nM; in that of `CC(C)(O)Cn1cc(-c2ccc(-c3cnn4cccc(C#CC(C)(C)C(=O)O)c34)cc2)cn1` [Compound P-0093, 4-(3-(4-(1-(2-hydroxy-2-methylpropyl)-1H-pyrazol-4-yl)phenyl)pyrazolo[1,5-a]pyridin-4-yl)-2,2-dimethylbut-3-ynoic acid], 100 to 1000 nM.
On to `N#CC1CC=C(c2c(-c3ccc4c(cnn4CC4(C(=O)O)CC4)c3)cnc3[nH]ccc23)CC1` (stereo not shown) [Compound P-0108, 1-((5-(4-(4-cyanocyclohex-1-en-1-yl)-1H-pyrrolo[2,3-b]pyridin-5-yl)-1H-indazol-1-yl)methyl)cyclopropane-1-carboxylic acid], for which the IC50 in assay [1] lay within 100 to 1000 nM.
Regarding `CC(C)(C#Cc1cccn2ncc(-c3ccc(N4CCOCC4)c(F)c3)c12)C(=O)O` [Compound P-0092, 4-(3-(3-fluoro-4-morpholinophenyl)pyrazolo[1,5-a]pyridin-4-yl)-2,2-dimethylbut-3-ynoic acid], the IC50 in assay [1] lay in the range of 100 to 1000 nM.
Take `CNC(=O)C1CC=C(c2cccn3ncc(-c4ccc(-c5cnn(C)c5)cc4)c23)CC1` (stereo not shown) [Compound P-0442, N-methyl-4-(3-(4-(1-methyl-1H-pyrazol-4-yl)phenyl)pyrazolo[1,5-a]pyridin-4-yl)cyclohex-3-ene-1-carboxamide]: the IC50 in assay [2] fell in the range of 0.1 to 100 nM.
Same read-out and setting: the value for `Cn1ncc2ccc(-c3cnn4cccc(N5CCC(C#N)(c6ccccn6)CC5)c34)cc21` [Compound P-0352, 1-(3-(1-methyl-1H-indazol-6-yl)pyrazolo[1,5-a]pyridin-4-yl)-4-(pyridin-2-yl)piperidine-4-carbonitrile] was 100 to 1000 nM; that for `Cn1cc(-c2ccc(-c3cnc4cccc(N5CCC(C)(C#N)CC5)n34)cc2)cn1` [Compound P-0401, 4-methyl-1-(3-(4-(1-methyl-1H-pyrazol-4-yl)phenyl)imidazo[1,2-a]pyridin-5-yl)piperidine-4-carbonitrile] was 0.1 to 100 nM.

Values taken from patent publication US10703757B2, “Compounds and methods for CDK8 modulation and indications therefor” (Plexxikon Inc., priority 2016, dated 2020).
